Here are results for three compounds from patent US4443436A, “C-20-Modified macrolide derivatives of the macrolide antibiotics tylosin, desmycosin, macrocin, and lactenocin” (Eli Lilly and Company, priority 1982, dated 1984).

Assay [1] has as its system Staphylococcus aureus X1.1. In words: MIC, standard agar-dilution assay, Staphylococcus aureus X1.1. In kind it is cell-based.
Assay [2] concerns Staphylococcus aureus V41. Kind of assay: MIC, standard agar-dilution assay, Staphylococcus aureus V41. Format: cell-based.
Assay [3] relates to Staphylococcus aureus X400. In words: MIC, standard agar-dilution assay, Staphylococcus aureus X400. Format: cell-based.
For assay [4], the system named is Staphylococcus aureus S13E. Kind of assay: MIC, standard agar-dilution assay, Staphylococcus aureus S13E. In kind it is cell-based.
The subject of assay [5] is Staphylococcus epidermidis EPI1. In words: MIC, standard agar-dilution assay, Staphylococcus epidermidis EPI1. In kind it is cell-based.
Assay [6] concerns Staphylococcus epidermidis EPI2. Kind of assay: MIC, standard agar-dilution assay, Staphylococcus epidermidis EPI2. In kind it is cell-based. As to conditions: Staphylococcus epidermidis EPI2, agar dilution. (Agar dilution tests growth on a series of plates holding different concentrations.)
The subject of assay [7] is Streptococcus Group D X66. Kind of assay: MIC, standard agar-dilution assay, Streptococcus Group D X66. Format: cell-based.
For a further assay, the system named is Streptococcus Group 9960. Kind of assay: MIC, standard agar-dilution assay, Streptococcus Group 9960. In kind it is cell-based.
Assay [8] concerns Haemophilus influenzae Holt. Kind of assay: MIC, standard agar-dilution assay, Haemophilus influenzae Holt. Format: cell-based.
Assay [9] relates to Haemophilus influenzae R252. In words: MIC, standard agar-dilution assay, Haemophilus influenzae R252. In kind it is cell-based.
The next assay relates to Staphylococcus aureus. Kind of assay: MIC, broth-dilution microtiter test, Staphylococcus aureus. Format: cell-based. The source says:
(§1) The MIC's in Table X were obtained using conventional broth-dilution microtiter tests.

Another assay concerns Streptococcus bovis 80. Kind of assay: MIC, broth-dilution microtiter test, Streptococcus bovis 80. In kind it is cell-based. Particulars: Streptococcus bovis 80, broth-dilution microtiter.
Source text: as §1

The test system of assay [10] is Pasteurella multocida 17E. Kind of assay: MIC, broth-dilution microtiter test, Pasteurella multocida 17E. In kind it is cell-based.
Source text: as §1

The subject of assay [11] is Pasteurella multocida 60A. In words: MIC, broth-dilution microtiter test, Pasteurella multocida 60A. In kind it is cell-based.
Source text: as §1

The subject of assay [12] is Pasteurella hemolytica 22C. In words: MIC, broth-dilution microtiter test, Pasteurella hemolytica 22C. Format: cell-based.
Source text: as §1

In another assay the test system is Mycoplasma gallisepticum. In words: MIC, broth-dilution microtiter test, Mycoplasma gallisepticum. Particulars: Mycoplasma gallisepticum, broth-dilution microtiter. Format: cell-based.
Source text: as §1

In the next assay the test system is Mycoplasma synoviae. In words: MIC, broth-dilution microtiter test, Mycoplasma synoviae. In kind it is cell-based.
Source text: as §1

The next assay relates to Mycoplasma hyorhinis. Kind of assay: MIC, broth-dilution microtiter test, Mycoplasma hyorhinis. Format: cell-based.
Source text: as §1

A further assay deals with Mycoplasma hyopneumoniae. Kind of assay: MIC, broth-dilution microtiter test, Mycoplasma hyopneumoniae. Format: cell-based.
Source text: as §1

In assay [13] the test system is Streptococcus pyogenes C203. Kind of assay: In vivo protection of mice experimentally infected with S. pyogenes C203. As to conditions: mice, doses given 1 and 4 hours post-infection; for ED50: Streptococcus pyogenes. How it is done: The C-20 modified derivatives of this invention have shown in vivo antimicrobial activity against experimentally-induced infections in laboratory animals. When two doses of test compound were administered to mice experimentally infected with S. pyogenes C203, the activity observed was measured as an ED50 value [effective dose in mg/kg to protect 50% of the test animals: see Warren Wick, et al., J. Bacteriol. 81, 233-235 (1961)].

In the next assay the test system is Pasteurella multocida. In words: Oral (gavage) treatment of Pasteurella multocida-infected chicks. In kind it is in vivo, one-day-old chicks. Particulars: 1.5 g/gal equivalent. On the procedure: Many of the C-20 modified derivatives of this invention have also shown in vivo antibacterial activity against infections induced by gram-negative bacteria. Tables XII and XIII summarize the results of tests in which illustrative compounds were evaluated against Pasteurella infection in one-day-old chicks. The compounds were administered parenterally or orally after challenge of the chicks with Pasteurella multocida (0.1 ml of a 10^-4 dilution of a twenty-hour tryptose broth culture of an avian P. multocida given subcutaneously). In these tests, unless indicated otherwise, all non-medicated infected chicks died within 24 hours of Pasteurella challenge. In the tests summarized in Table XII the compounds were administered by subcutaneous injection at a dosage of 30 mg/kg, 1 and 4 hours post-challenge of the chicks with P. multocida. In the test summarized in Table XIII the compounds were administered by gavage at 1 and 5 hours post-challenge of the chicks with P. multocida.

For assay [14], the system named is Streptococcus pyogenes C203. In words: MIC, standard agar-dilution assay, Streptococcus pyogenes C203. Format: cell-based.
The test system of assay [15] is Streptococcus pneumoniae Park I. In words: microbe, parasite or virus in culture. Format: cell-based.
[16] abbreviates: Staphylococcus epidermidis, EPI1.
Where [17] appears, read: Streptococcus equinus, read-out: MIC.
Where [18] appears, read: Mycoplasmoides gallisepticum, read-out: MIC.
Where [19] appears, read: C203, sc, subcutaneous, read-out: ED50, Subcutaneous.
The mark [20] stands for this setting: C203, oral, read-out: ED50, Oral.

Values after ≈ are worked out from the molar mass of the structure shown. Read-outs that look alike come from different tables or passages of the source.

With `CCC1OC(=O)CC(O)C(C)C(OC2OC(C)C(O)C(N(C)C)C2O)C(CCOc2ccc(C(=O)c3ccccc3)cc2)CC(C)C(=O)C=CC(C)=CC1COC1OC(C)C(O)C(OC)C1OC` (centres unmarked) [Compound 37, 20-DH-20-O-(p-Benzoylphenyl)desmycosin], the MIC in assay [1] (Staphylococcus aureus, X1.1) is 0.25 µg/mL (≈ 0.262 µM); in assay [2] (Staphylococcus aureus, V41), 0.25 µg/mL (≈ 0.262 µM); in [3] (Staphylococcus aureus, X400), 0.25 µg/mL (≈ 0.262 µM); in assay [4] (Staphylococcus aureus, S13E), 0.25 µg/mL (≈ 0.262 µM); in [5] (setting [16]), 0.25 µg/mL (≈ 0.262 µM); in [6] (read-out: MIC), 0.12 µg/mL (≈ 0.126 µM). In addition, the MIC turned out to be 0.25 µg/mL (≈ 0.262 µM) in assay [7]; 0.5 µg/mL (≈ 0.524 µM) with Streptococcus Group 9960 (GROUP9960); 16 µg/mL (≈ 16.8 µM) in assay [8] (Haemophilus influenzae); 16 µg/mL (≈ 16.8 µM) in assay [9] (Haemophilus influenzae, R252); 0.19 µg/mL (≈ 0.199 µM) in the assay on Staphylococcus aureus (broth-dilution microtiter, read-out: MIC); 0.19 µg/mL (≈ 0.199 µM) with Streptococcus bovis 80 (setting [17]). Moreover, the MIC in assay [10] (Pasteurella multocida, 17E) turned out to be 12.5 µg/mL (≈ 13.1 µM); in assay [11] (Pasteurella multocida 60A, avian isolate, broth-dilution microtiter, read-out: MIC), 25 µg/mL (≈ 26.2 µM); in [12] (Pasteurella, 22C) it was 12.5 µg/mL (≈ 13.1 µM); in the assay with Mycoplasma gallisepticum (setting [18]) it was 0.19 µg/mL (≈ 0.199 µM); in the assay on Mycoplasma synoviae (Mycoplasmopsis synoviae) it was 1.56 µg/mL (≈ 1.63 µM); in the assay with Mycoplasma hyorhinis (Mycoplasma) it was 0.78 µg/mL (≈ 0.817 µM). Moreover, the MIC in the assay with Mycoplasma hyopneumoniae (Mesomycoplasma hyopneumoniae, Mycoplasma hyopneumoniae, broth-dilution microtiter, read-out: MIC) was 0.19 µg/mL (≈ 0.199 µM). Further, the ED50 (commonly the dose that gives a 50% effect, or the effect in half of the subjects) in assay [13] (setting [19]) amounted to 7.2 mg/kg; in [13] (setting [20]), 18 mg/kg. In addition, the “Number of Deaths/Number tested” value in the assay on Pasteurella multocida is 10/10.

Turning to `CCC1OC(=O)CC(O)C(C)C(OC2OC(C)C(O)C(N(C)C)C2O)C(CCOc2ccc(C=O)cc2)CC(C)C(=O)C=CC(C)=CC1COC1OC(C)C(O)C(OC)C1OC` (centres unmarked) [Compound 36, 20-DH-20-O-(p-formylphenyl)desmycosin], the MIC came to 0.25 µg/mL (≈ 0.285 µM) in [1] (Staphylococcus aureus, X1.1); 0.25 µg/mL (≈ 0.285 µM) in [2] (Staphylococcus aureus, V41); 0.25 µg/mL (≈ 0.285 µM) in assay [3] (Staphylococcus aureus, X400); 0.25 µg/mL (≈ 0.285 µM) in assay [4] (Staphylococcus aureus, S13E); 0.25 µg/mL (≈ 0.285 µM) in assay [5] (setting [16]); 0.12 µg/mL (≈ 0.137 µM) in [6] (read-out: MIC). The MIC in [14] (Streptococcus pyogenes, C203) came out at 1 µg/mL (≈ 1.14 µM); in assay [15] (Streptococcus pneumoniae) it was 1 µg/mL (≈ 1.14 µM); in [7] it was 4 µg/mL (≈ 4.56 µM); with Streptococcus Group 9960 (GROUP9960, Streptococcus Group 9960, agar dilution, read-out: MIC), 8 µg/mL (≈ 9.11 µM); in assay [8] (Haemophilus influenzae), 16 µg/mL (≈ 18.2 µM); in assay [9] (Haemophilus influenzae, R252), 16 µg/mL (≈ 18.2 µM). Further, the MIC against Staphylococcus aureus came to 12.5 µg/mL (≈ 14.2 µM); in the assay with Streptococcus bovis 80 (setting [17]), 12.5 µg/mL (≈ 14.2 µM); in [10] (Pasteurella multocida 17E, bovine isolate, broth-dilution microtiter, read-out: MIC), 25 µg/mL (≈ 28.5 µM); in [11] (Pasteurella multocida, 60A), 12.5 µg/mL (≈ 14.2 µM); in [12] (Pasteurella, 22C), 50 µg/mL (≈ 56.9 µM); in the assay with Mycoplasma gallisepticum (setting [18]), 25 µg/mL (≈ 28.5 µM). Moreover, the MIC in the assay with Mycoplasma synoviae (Mycoplasmopsis synoviae, Mycoplasma synoviae, broth-dilution microtiter, read-out: MIC) was over 50 µg/mL; in the assay on Mycoplasma hyorhinis (Mycoplasma), 50 µg/mL (≈ 56.9 µM); against Mycoplasma hyopneumoniae (Mesomycoplasma hyopneumoniae), 12.5 µg/mL (≈ 14.2 µM). The ED50 in assay [13] (setting [19]) came out at 2.2 mg/kg; in [13] (setting [20]), 19 mg/kg.

Turning to `CCC1OC(=O)CC(O)C(C)C(OC2OC(C)C(O)C(N(C)C)C2O)C(CCOc2ccc(-c3ccccc3)cc2)CC(C)C(=O)C=CC(C)=CC1COC1OC(C)C(O)C(OC)C1OC` (centres unmarked) [Compound 41, 20-DH-20-O-(p-Phenylphenyl)desmycosin], the MIC was 0.5 µg/mL (≈ 0.54 µM) in assay [1] (Staphylococcus aureus X1.1, agar dilution); 0.25 µg/mL (≈ 0.27 µM) in assay [2] (Staphylococcus aureus V41, penicillin-resistant strain, agar dilution); 0.5 µg/mL (≈ 0.54 µM) in [3] (Staphylococcus aureus X400, methicillin-resistant strain, agar dilution); 0.25 µg/mL (≈ 0.27 µM) in assay [4] (Staphylococcus aureus S13E, agar dilution); 0.5 µg/mL (≈ 0.54 µM) in assay [5] (Staphylococcus epidermidis EPI1, agar dilution); 0.25 µg/mL (≈ 0.27 µM) in assay [6]. Further, the MIC was found to be 0.25 µg/mL (≈ 0.27 µM) in assay [14] (Streptococcus pyogenes C203, agar dilution); 0.25 µg/mL (≈ 0.27 µM) in [15] (Streptococcus pneumoniae Park I, agar dilution); 0.5 µg/mL (≈ 0.54 µM) in assay [7] (Streptococcus Group D X66, agar dilution); 0.5 µg/mL (≈ 0.54 µM) against Streptococcus Group 9960 (Streptococcus Group 9960, agar dilution); 16 µg/mL (≈ 17.3 µM) in [8] (Haemophilus influenzae Holt, ampicillin-sensitive strain, agar dilution); 16 µg/mL (≈ 17.3 µM) in assay [9] (Haemophilus influenzae R252, ampicillin-resistant strain, agar dilution). Further, the MIC is 0.19 µg/mL (≈ 0.205 µM) against Staphylococcus aureus (broth-dilution microtiter); 0.39 µg/mL (≈ 0.421 µM) against Streptococcus bovis 80; 12.5 µg/mL (≈ 13.5 µM) in [10] (Pasteurella multocida 17E, bovine isolate, broth-dilution microtiter); 12.5 µg/mL (≈ 13.5 µM) in assay [11] (Pasteurella multocida 60A, avian isolate, broth-dilution microtiter); 25 µg/mL (≈ 27 µM) in assay [12] (Pasteurella hemolytica 22C, broth-dilution microtiter); under 0.05 µg/mL in the assay with Mycoplasma gallisepticum. The MIC against Mycoplasma synoviae (Mycoplasma synoviae, broth-dilution microtiter) came to 0.39 µg/mL (≈ 0.421 µM); against Mycoplasma hyorhinis (Mycoplasma hyorhinis, broth-dilution microtiter) it was 3.12 µg/mL (≈ 3.37 µM); against Mycoplasma hyopneumoniae (Mycoplasma hyopneumoniae, broth-dilution microtiter) it was 3.12 µg/mL (≈ 3.37 µM). Moreover, the “ED50, Oral” value in [13] (oral) is given as 25 mg/kg × 2. Further, the “ED50, Subcutaneous” value in assay [13] (subcutaneous) is on record as over 10 mg/kg × 2.
